The values below come from US9328117B2, “Bromodomain inhibitors and uses thereof” (Constellation Pharmaceuticals, Inc., priority 2011, dated 2016).

Assay [1] has as its target T1, BRD4(BD1) (Homo sapiens, UniProt O60885).
T1 construct: His; made in house
As to the kind of experiment: BRD4 AlphaLisa binding assay. Conditions: BRD4(BD1) 30 nM, biotinylated H4-tetraacetyl peptide 200 nM. The method, then:
A. IC50 Measurements for Inhibitors Using BRD4 AlphaLisa Binding Assay
His/Flag epitope tagged BRD4 BD142-168 was cloned, expressed and purified to homogeneity. BRD4 binding and inhibition was assessed by monitoring the engagement of biotinylated H4-tetraacetyl peptide (Millipore #12-379) with the target using the AlphaLisa technology (Perkin-Elmer). Specifically, in a 384 well ProxiPlate BRD4(BD1) (30 nM final) was combined with peptide (200 nM final) in 40 mM HEPES (pH 7.0), 40 mM NaCl, 1 mM DTT, 0.01% (w/v) BSA, and 0.008% (w/v) Brij-35 either in the presence of DMSO (final 1.2% DMSO) or compound dilution series in DMSO. After 20 minute incubation at room temperature Alpha streptavidin donor beads and AlphaLisa anti-Flag acceptor beads were added to a final concentration of 10 ug/mL each. After three hours equilibration plates were read on an Envision instrument and IC50s calculated using a four parameter non-linear curve fit.
For orientation: In Alpha technology, singlet oxygen from a donor bead excites a nearby acceptor bead.

Assay [2] deals with IL-6 secretion in LPS-treated THP-1 cells. As to the kind of experiment: Cell-based IL-6 quantification assay (ELISA, Mesoscale). Particulars: Homo sapiens, LPS 4 μg/mL, 16 h, normalised to CellTiter-Glo. The method, then:
C. Cell-Based IL-6 Quantification Assay (ELISA, Mesoscale Assay):
100,000 THP-1 cells were seeded in RPMI1640-10% FBS in 96-well plates. LPS (E. Coli Invitrogen) in RPMI-10% FBS at a final concentration of 4 μg/mL was added to the wells and the cells are then incubated in the presence of various concentrations of compounds for 16 h. Plates are spun ([…], 5 min), an aliquot of 25 uL supernatant is transferred in to an ELISA plate (Mesoscale technology, MSD) and the detection of IL-6 is performed using manufacturer's instructions. The amount of cells in each well is assessed using CellTiter-Glo® (Promega). The ratio of ELISA value/CellTiter-Glo value is used to calculate the percent of inhibition of IL-6 secretion.
For orientation: In an ELISA, binding on a coated surface is turned into a signal by an enzyme label.

Assay [3] deals with MYC mRNA in MV4:11 (AML) cells. The assay is described as follows: cMyc RNA quantification assay (QuantiGene), MV4:11. The assay is classed as cell-based. Conditions: Homo sapiens; MV4-11 cells, 4 h. The method, then: (§1) B. cMyc RNA quantification assay (QuantiGene® Assay)
(§2) MV4:11 (AML) or Raji (Burkitt lymphoma) cells were seeded in a 96-well plate and incubated in the presence of various concentrations of compounds for 4 h. Relative mRNA levels were quantitated by using QuantiGene 2.0 assay (Affymetrix) according to the manufacturer's recommendation. Signals were detected by using an Envision plate reader (Perkin-Elmer). Biological duplicates were averaged and normalized to vehicle (DMSO) control to calculate percent MYC mRNA levels.

Assay [4] relates to MYC mRNA in Raji (Burkitt lymphoma) cells. The assay is described as follows: cMyc RNA quantification assay (QuantiGene), Raji. The assay is classed as cell-based. Conditions: Homo sapiens, 4 h. The method, then:
as §1, §2

With `CCNC(=O)Nc1cc(N(C)[C@@H](C)c2ccccc2)nn2c(C(F)(F)F)nnc12` [Compound 14], the half-inhibitory concentration (IC50) in assay [1], in assay [2] and in assay [3] was below 0.5 µM each time.
As for `Cc1nnc2ccc(N(C)C(C)c3ccccc3)nn12` (stereo not shown) [Compound 2, N,3-dimethyl-N-(1-phenylethyl)-[1,2,4]triazolo[4,3-b]pyridazin-6-amine], the results for the IC50 in assay [1] and in assay [2] were 0.5 to 1 µM and above 1 µM, respectively.
With `Cc1nnc2c(C(N)=O)cc(N(C)[C@@H](C)c3ccccc3)nn12` [Compound 7, (S)-3-methyl-6-(methyl(1-phenylethyl)amino)-[1,2,4]triazolo[4,3-b]pyridazine-8-carboxamide], the 50% inhibitory concentration (IC50) in assay [1] and in assay [2] was above 1 µM throughout.
On to `Cc1nnc2ccc(N3CCCC3c3ccccc3)nn12` (stereo not shown) [Compound 10, 3-methyl-6-(2-phenylpyrrolidin-1-yl)-[1,2,4]-triazolo[4,3-b]pyridazine], for which the half-inhibitory concentration (IC50) in assay [1] is above 1 µM.
For `Cc1nnc2c(N)cc(N(C)[C@@H](C)c3ccccc3)nn12` [Compound 6, (S)-N^6,3-dimethyl-N^6-(1-phenylethyl)-[1,2,4]triazolo[4,3-b]pyridazine-6,8-diamine], the IC50 in assay [1] and in assay [2] was below 0.5 µM in each case.
Regarding `CCNC(=O)Nc1cc(N(C)[C@@H](C)c2ccccc2)nn2c(C)nnc12` [Compound 5, (S)-1-ethyl-3-(3-methyl-6-(methyl(1-phenylethyl)amino)-[1,2,4]triazolo[4,3-b]pyridazin-8-yl)urea], the IC50 in assay [1], in assay [2] and in assay [4] was below 0.5 µM each time.
For `CCOC(=O)Nc1cc(N(C)[C@@H](C)c2ccccc2)nn2c(C)nnc12` [Compound 11], the 50% inhibitory concentration (IC50) in assay [1], in assay [2] and in assay [4] was below 0.5 µM in each case.
In the case of `CCNC(=O)Nc1cc(N(C)[C@@H](C)c2ccc(F)cc2)nn2c(C)nnc12` [Compound 12], the IC50 in assay [1], in assay [2] and in assay [3] was below 0.5 µM each time.
With `CCNC(=O)Nc1cc(N(C)[C@@H](C)c2ccc(Cl)cc2)nn2c(C)nnc12` [Compound 13], the IC50 in assay [1], in assay [2] and in assay [3] was below 0.5 µM in each case.
Consider `C[C@@H](c1ccccc1)N(C)c1ccc2nnc(C#N)n2n1` [Compound 9, (S)-6-(methyl(1-phenylethyl)amino)-[1,2,4]triazolo[4,3-b]pyridazine-3-carbonitrile], for which the half-inhibitory concentration (IC50) in assay [1], in assay [2] and in assay [3] was above 1 µM in each case.
Regarding `Cc1nnc2ccc(N(C)[C@@H](C)c3ccccc3)nn12` [Compound 3, (S)-N,3-dimethyl-N-(1-phenylethyl)-[1,2,4]triazolo[4,3-b]pyridazin-6-amine], the results for the half-maximal inhibitory concentration (IC50) in assay [1] and in assay [2] were below 0.5 µM and above 1 µM, respectively.
In assay [1], `Cc1nnc2ccc(N(C)[C@H](C)c3ccccc3)nn12` [Compound 4, (R)-N,3-dimethyl-N-(1-phenylethyl)-[1,2,4]triazolo[4,3-b]pyridazin-6-amine] displayed an IC50 above 1 µM.
Take `Cc1nnc2ccc(NC(C)c3ccccc3)nn12` (racemic) [Compound 1, rac-3-methyl-N-(1-phenylethyl)-[1,2,4]triazolo[4,3-b]pyridazin-6-amine]: the IC50 in assay [1], in assay [2] and in assay [3] was above 1 µM in each case.
As to `Cc1nnc2c(NC(=O)N(C)C)cc(N(C)[C@@H](C)c3ccccc3)nn12` [Compound 8, (S)-1,1-dimethyl-3-(3-methyl-6-(methyl(1-phenylethyl)amino)-[1,2,4]triazolo[4,3-b]pyridazin-8-yl)urea], the figures for the IC50 in assay [1], in assay [2] and in assay [4] were below 0.5 µM, 0.5 to 1 µM and above 1 µM, respectively.

One may read the IC50 as the concentration at which inhibition is half-maximal. The low end stands for inhibition by little substance, the high end for a need for much substance.
